The record followed here is patent US20250025438A1, “Derivative of aspartic acid and use thereof in treatment of metabolic diseases such as hepatic fibrosis and non-alcoholic hepatitis” (SHENZHEN JINGTAI TECHNOLOGY CO., LTD., priority 2021, published 2025).

The structures appear in SMILES notation. Where a SMILES comes first, the peptide text is derived from it.

What all share (type): cell-based
One assay has as its system COL1A1. Put plainly: In vitro efficacy in semi-activated LX2 cells, qPCR: COL1A1. Particulars: 48 hours, Q-PCR; for inhibition at 50 µM: Homo sapiens, LX-2, 50 µM, read-out: COL1A1 mRNA inhibition rate. As for the experimental part: (§1) Test compounds were added to the LX-2 cells respectively, and total RNA in the cells was extracted 48 hours later. This experiment was performed strictly in accordance with the instructions of the Total RNA Kit. The steps were as follows (note: this experiment was performed on ice throughout the entire process, and special RNase-free tips were used throughout the entire process): • 1) The 12-well cell culture plate was taken out from the incubator, the cell culture medium was discarded, the cells were washed twice with 1 mL of 1×PBS, and a negative pressure suction device was used to fully remove PBS; • 2) 350 μL of TRK Lysis Buffer mixture/well was prepared as needed (mixture preparation method: 1 mL of TRKLysis Buffer+20 μL of β-mercaptoethanol), vortexed and mixed well. 350 μL was added to each well of the 12-well cell culture plate, and allowed to stand at room temperature for 5 minutes to fully lyse the cells; • 3) 70% ethanol/well was prepared as needed, vortexed and mixed well. 350 μL was added to each well of the 12-well cell culture plate, mixed well by shaking, and transferred to the spin column (spin column+collection tube were assembled); • 4) Centrifugation was performed at 4° C., 12000 g for 60 sec. The waste liquid was discarded after centrifugation, while the spin column was kept; • 5) 500 μL of RNA Wash Buffer I was added, centrifuged at 4° C., 12000 g for 60 sec, the waste liquid was discarded after centrifugation, and the collection column was kept; • 6) 500 μL of RNA Wash Buffer II (confirmed that ethanol had been added) was added, centrifuged at 4° C., 12000 g for 60 sec, the waste liquid was discarded after centrifugation, and the collection column was kept; • 7) step 6) was repeated once again, centrifugation was performed at 4° C., 12000 g for 90 sec, the waste liquid was discarded after centrifugation, and the collection column was kept; • 8) Centrifugation was performed at 4° C., 12000 g for 120 sec to ensure that the spin column was fully dried; • 9) The dried spin column was inserted into a new 1.5 mL EP tube, and 30 μL of DEPC water was added to the membrane in the center of the spin column. It should be careful not to touch the EP tube cover in this step. It was allowed to stand at room temperature for 5 minutes to ensure that the RNA was fully dissolved in DEPC water. Centrifugation was performed at 4° C., 12000 g for 60 sec, and the EP tube was kept; • 10) NanoDrop ultra-micro-volume spectrophotometer was used to detect RNA concentration;
(§2) 5.2 Reverse transcription of RNA into cDNA: According to the instructions of PrimeScript™ RT reagent Kit (Perfect Real Time), the specific experimental steps were as follows:
(§3) 5.3 Q-PCR detection of target gene expression: According to the instructions of Power SYBR® Green PCR Master Mix, the specific operations were as follows:
(§4) After the reaction was completed, the amplification curve and dissolution curve of Q-PCR were confirmed, and the relative quantification method ([…]) was used to perform data analysis on the experimental results.
(§5) LX2 cells were passaged and plated normally. […] After 48 hours, the cells were collected, total RNA was extracted, and Q-PCR was used to detect the changes in the mRNA expression levels of liver fibrosis-related genes (ACTA2 encoding α-SMA, COL1A1 and COLIA2 encoding collagen I, COL3A1 encoding collagen III, SMAD3 encoding Smad3) and inflammation-related genes (IL1β encoding IL-1β, TNFα encoding TNFα) (for specific methods, see 5. Q-PCR detection of target gene expression as described above). α-SMA was a marker of hepatic stellate cell activation, and collagen I and collagen III were the main components of extracellular matrix deposition.
For orientation: In qPCR the cycle at which signal appears reflects the starting amount.

The next assay has as its system α-SMA. Put plainly: In vitro efficacy in semi-activated LX2 cells, qPCR: α-SMA. The conditions noted are these: 50 µM, 48 hours, Q-PCR, read-out: α-SMA mRNA inhibition rate. The method, then:
as §1, §2, §3, §4, §5

The next assay relates to Smad3. Put plainly: In vitro efficacy in semi-activated LX2 cells, qPCR: Smad3. Particulars: 48 hours, Q-PCR; for inhibition of the expression of Smad3 at the mRNA level: Table 2; for inhibition at 50 µM: Homo sapiens, LX-2, 50 µM, read-out: Smad3 mRNA inhibition rate. As for the experimental part:
as §1, §2, §3, §4, §5

For another assay, the system named is TNF-α. Put plainly: In vitro efficacy in semi-activated LX2 cells, qPCR: TNF-α. The conditions noted are these: Homo sapiens, LX-2, 48 hours, Q-PCR, read-out: TNF-α mRNA inhibition rate. As for the experimental part: as §1, §2, §3, §4
(§6) LX2 cells were passaged and plated normally. After adherent growth for 12 hours, 50 µM of the test compound was added. After 48 hours, the cells were collected, total RNA was extracted, and Q-PCR was used to detect the changes in the mRNA expression levels of liver fibrosis-related genes (ACTA2 encoding α-SMA, COL1A1 and COLIA2 encoding collagen I, COL3A1 encoding collagen III, SMAD3 encoding Smad3) and inflammation-related genes (IL1β encoding IL-1β, TNFα encoding TNFα) (for specific methods, see 5. Q-PCR detection of target gene expression as described above). α-SMA was a marker of hepatic stellate cell activation, and collagen I and collagen III were the main components of extracellular matrix deposition.

A further assay deals with IL-1β. Put plainly: In vitro efficacy in semi-activated LX2 cells, qPCR: IL-1β. Particulars: 48 hours, Q-PCR; for inhibition at 50 µM: Homo sapiens, LX-2, 50 µM, read-out: IL-1β mRNA inhibition rate. The method, then:
as §1, §2, §3, §4, §5

A further assay concerns COL3A1. Put plainly: In vitro efficacy in semi-activated LX2 cells, qPCR: COL3A1. The conditions noted are these: 48 hours, Q-PCR; for inhibition at 50 µM: Homo sapiens, LX-2, 50 µM, read-out: COL3A1 mRNA inhibition rate. As for the experimental part:
as §1, §2, §3, §4, §5

Assay [1] has as its system collagen I and collagen III. Put plainly: Semi-activated LX2 cells, qPCR: collagen I and collagen III at the mRNA level. The conditions noted are these: 48 hours, Q-PCR, Table 2. As for the experimental part: as §1, §3
as §6, with “deposition. […]” for “deposition.”

A word on the inhibition: it is how much of the control response was suppressed. Take `CC(C)(C)OC(=O)N[C@@H](CC(=O)O)C(=O)O` [Compound 1]: the inhibition at 50 µM in the assay with COL1A1 lay within 1 to 10%; in the assay on α-SMA, 1 to 10%; in the assay with Smad3, 10 to 25%; in the assay on TNF-α, 1 to 10%. For the same molecule, the “inhibition of the expression of Smad3 at the mRNA level” value (shortened to “inhibition of the expression of Smad3”) in the assay on Smad3 is “could inhibit”.

Regarding `COC(=O)[C@H](CC(=O)O)NC(=O)OCC1c2ccccc2-c2ccccc21` [Compound 5], the inhibition at 50 µM in the assay with IL-1β was in the range of 1 to 10%.

Consider `COC(=O)C[C@H](N)C(=O)OC.Cl` [Compound 7], for which the “IL-1β mRNA inhibition rate” value in the assay with IL-1β (test concentration 25 μM) is on record as “E (E represented that the inhibition rate was 1% to 10%)”.

Turning to `COC(=O)C[C@H](NC(=O)OC(C)(C)C)C(=O)O` [Compound 8], the inhibition at 50 µM with COL1A1 lay within 10 to 25%; in the assay on COL3A1 it was 10 to 25%; with Smad3 it was 1 to 10%; with IL-1β it was 1 to 10%. For the same molecule, in assay [1], the “inhibition of the expression of collagen I and collagen III at the mRNA level” value is “could inhibit”.

Regarding `COC(=O)C[C@H](NC(=O)OCC1c2ccccc2-c2ccccc21)C(=O)O` [Compound 9], the inhibition at 50 µM lay within 1 to 10% in the assay on α-SMA, 10 to 25% in the assay with Smad3 and 25 to 50% in the assay with IL-1β. For the same molecule, the “inhibition of the expression of Smad3” value with Smad3 is “could inhibit”.

In the case of `C=CCOC(=O)C[C@H](NC(=O)OCC1c2ccccc2-c2ccccc21)C(=O)O` [Compound 11], the inhibition at 50 µM in the assay with Smad3 was in the range of 1 to 10%; in the assay on IL-1β, 25 to 50%; in the assay on TNF-α, 1 to 10%.

For `CC(C)(C)OC(=O)[C@@H](N)CC(=O)O` [Compound 14], the inhibition at 50 µM in the assay on COL1A1 lay within 10 to 25%; with COL3A1 it was 1 to 10%; with TNF-α, 1 to 10%. Also, the “inhibition of the expression of collagen I and collagen III at the mRNA level” value in assay [1] is “could inhibit”.

Turning to `COC(=O)[C@@H](N)CC(=O)OC(C)(C)C` [Compound 15], the inhibition at 50 µM in the assay on COL1A1 lay within 10 to 25%; with COL3A1, 10 to 25%; with α-SMA, 1 to 10%; in the assay on Smad3 it was 10 to 25%; in the assay on TNF-α it was 1 to 10%. In addition, the “inhibition of the expression of Smad3” value in the assay on Smad3 is reported as “could inhibit”. For the same molecule, in assay [1], the “inhibition of the expression of collagen I and collagen III at the mRNA level” value was “could inhibit”.

For the molecule `CC(C)(C)OC(=O)C[C@H](NC(=O)OCc1ccccc1)C(=O)O` [Compound 16], the inhibition at 50 µM in the assay on COL1A1 and in the assay on TNF-α was 1 to 10% each time.

As to `CC(C)(C)OC(=O)C[C@H](NC(=O)OC(C)(C)C)C(=O)O` [Compound 17], the inhibition at 50 µM in the assay on COL1A1 fell in the range of 1 to 10%; in the assay on α-SMA, 1 to 10%; in the assay on Smad3, 1 to 10%; in the assay on TNF-α it was 10 to 25%.

For `CC(C)(C)OC(=O)N[C@@H](CC(=O)O)C(=O)OCc1ccccc1` [Compound 21], the inhibition at 50 µM with COL1A1 lay within 1 to 10%; in the assay with COL3A1, 10 to 25%; in the assay on α-SMA, 1 to 10%; with Smad3 it was 1 to 10%. In addition, the “inhibition of the expression of collagen I and collagen III at the mRNA level” value in assay [1] is recorded as “could inhibit”.

Regarding `N[C@@H](CC(=O)OCc1ccccc1)C(=O)O` [Compound 22], the inhibition at 50 µM in the assay on COL1A1 fell in the range of 10 to 25%; in the assay on COL3A1 it was 1 to 10%; with Smad3, 10 to 25%; in the assay with IL-1β it was 1 to 10%; in the assay on TNF-α, 1 to 10%. The “inhibition of the expression of Smad3” value in the assay with Smad3 is on record as “could inhibit”. The “inhibition of the expression of collagen I and collagen III at the mRNA level” value in assay [1] was “could inhibit”.

For the molecule `CC(=O)N[C@@H](CC(=O)OC(C)(C)C)C(=O)O` [Compound 31], the inhibition at 50 µM with COL1A1, with α-SMA and with IL-1β was 1 to 10% each time.

On to `N[C@@H](CC(=O)NCC(=O)O)C(=O)O` [Compound 34], for which the inhibition at 50 µM with COL3A1, in the assay on α-SMA, in the assay with Smad3, with IL-1β and in the assay on TNF-α was 1 to 10% throughout.

As to `CC(C)OC(=O)C[C@H](N)C(=O)O` [Compound 36, 4-isopropyl L-aspartic acid ester], the inhibition at 50 µM with COL3A1, in the assay on α-SMA, with Smad3 and in the assay with TNF-α was 1 to 10% throughout.

For the molecule `O=C(O)C[C@H](NC(=O)[C@@H]1CCCN1)C(=O)O` [Compound 40] (H-Pro-Asp-OH), the inhibition at 50 µM in the assay on COL1A1 was in the range of 25 to 50%; in the assay with COL3A1, 25 to 50%; in the assay on Smad3 it was 1 to 10%; in the assay on IL-1β, 1 to 10%; in the assay on TNF-α, 1 to 10%. The “inhibition of the expression of collagen I and collagen III at the mRNA level” value in assay [1] is “could inhibit”.

Consider `COC(=O)C[C@H](N)C(=O)OC(C)(C)C.Cl` [Compound 44], for which, in the assay on COL1A1 (50 µM), the “COL1A1 mRNA inhibition rate” value is on record as “D (D represented that the inhibition rate was 10% to 25%)”. The “COL3A1 mRNA inhibition rate” value in the assay on COL3A1 (50 µM) was “E (E represented that the inhibition rate was 1% to 10%)”. For the same molecule, in the assay with IL-1β (50 µM), the “IL-1β mRNA inhibition rate” value was “E (E represented that the inhibition rate was 1% to 10%)”. Further, the “inhibition of the expression of collagen I and collagen III at the mRNA level” value in assay [1] is listed as “could inhibit”.

With `CC(C)C(=O)N[C@@H](CC(=O)O)C(=O)O` [Compound 59, isobutyryl-L-aspartic acid], the inhibition at 50 µM lay within 10 to 25% in the assay on COL1A1, 1 to 10% in the assay on α-SMA and 1 to 10% in the assay with TNF-α. For the same molecule, the “inhibition of the expression of collagen I and collagen III at the mRNA level” value in assay [1] is recorded as “could inhibit”.

Consider `CN(C)C(=O)N[C@@H](CC(=O)O)C(=O)O` [Compound 62, (dimethylcarbamoyl)-L-aspartic acid], for which the inhibition at 50 µM with COL1A1, in the assay on α-SMA, in the assay on Smad3, in the assay with IL-1β and in the assay on TNF-α was 1 to 10% each time.
